Literature values as cited in PMC7395068, “The evolution of strategies to minimise the risk of human drug-induced liver injury (DILI) in drug discovery and development” (Archives of Toxicology, 2020).
Like-named read-outs stand apart in the source and are kept apart here.

Tests used:
[1] = test system: THLE or HepG2 cells, isolated mitochondria, BSEP; conditions: cited from earlier work
[2] = cited from earlier work
[3] = cited from earlier work; remark: listed apart in the source
[4] = test system: primary human hepatocytes, NIH3T3 fibroblasts, BSEP, CYP3A4; conditions: cited from earlier work
[5] = In vitro Assay, ref Schadt 2015

## Nc1ccc(C(=O)O)c(O)c1 [4-aminosalicylic acid]
[1]
  Partition Hybrid HRM Score: -VE
  Ro2 Hybrid HRM Score: -VE
[2]; in vivo
  DILI +VE (5-8), DILI -VE (-4): +VE
  DILI severity category: vMost-DILI-Concern

## CCOC(=O)Nc1ccc(NCc2ccc(F)cc2)nc1N [Flupirtine (Kv7 hepatotoxic@400)]
[3]; ref Aleo 2019
  In vivo DILI: +VE
[1]; In vitro Assay, ref Aleo 2019
  Partition Hybrid HRM Score: +VE
  Ro2 Hybrid HRM Score: +VE

## O=C(Nc1cccc2c(=O)cc(-c3nnn[nH]3)oc12)c1ccc(OCCCCc2ccccc2)cc1 [Pranlukast]
[3]; ref Aleo 2019
  In vivo DILI: +VE
[1]; In vitro Assay, ref Aleo 2019
  Partition Hybrid HRM Score: +VE
  Ro2 Hybrid HRM Score: +VE

## CCc1oc2ccccc2c1C(=O)c1ccc(O)cc1 [benzarone]
[3]; ref Aleo 2019
  In vivo DILI: +VE
[1]; In vitro Assay, ref Aleo 2019
  Partition Hybrid HRM Score: +VE
  Ro2 Hybrid HRM Score: +VE
[2]; ref Chen 2016
  DILI +VE (5-8), DILI -VE (-4): +VE
  DILI severity category: vMost-DILI-Concern

## CCc1oc2ccccc2c1C(=O)c1cc(I)c(O)c(I)c1 [benziodarone]
[3]; ref Aleo 2019
  In vivo DILI: +VE
[1]; In vitro Assay, ref Aleo 2019
  Partition Hybrid HRM Score: +VE
  Ro2 Hybrid HRM Score: +VE
[2]; ref Chen 2016
  DILI +VE (5-8), DILI -VE (-4): +VE
  DILI severity category: vMost-DILI-Concern

## N.N.[Cl][Pt][Cl] [cisplatin]
[1]; In vitro Assay, ref Aleo 2019
  Ro2 Hybrid HRM Score: -VE

## CC[C@H]1OC(=O)[C@H](C)[C@@H](O[C@H]2C[C@@](C)(OC)[C@@H](O)[C@H](C)O2)[C@H](C)[C@@H](O[C@@H]2O[C@H](C)C[C@H](N(C)C)[C@H]2O)[C@](C)(OC)C[C@@H](C)C(=O)[C@H](C)[C@@H](O)[C@]1(C)O [clarithromycin]
[3]; […]
  In vivo DILI: -VE
[3]; ref Schadt 2015
  In vivo DILI: +VE
[4]; [5]
  Cellular toxicity (3T3 cells): -VE
  Combined Assay: +VE
  GSH adduct HML: -VE
  Hepatocyte cellular toxicity: -VE
  MitoTox 3T3: +VE
  TDI CYP3A4: -VE
  hBSEP inhibition: -VE
[2]; ref Chen 2016
  DILI +VE (5-8), DILI -VE (-4): +VE
  DILI severity category: vMost-DILI-Concern

## O=C1CN=C(c2ccccc2Cl)c2cc([N+](=O)[O-])ccc2N1 [clonazepam]
[3]; ref Schadt 2015
  In vivo DILI: -VE
[4]
  Cellular toxicity (3T3 cells): -VE
  Combined Assay: -VE
  GSH adduct HML: -VE
  Hepatocyte cellular toxicity: -VE
  MitoTox 3T3: -VE
  TDI CYP3A4: -VE
  hBSEP inhibition: -VE
[2]; ref Chen 2016
  DILI +VE (5-8), DILI -VE (-4): +VE
  DILI severity category: vLess-DILI-Concern

## CN(C)CCC=C1c2ccccc2C=Cc2ccccc21 [cyclobenzaprine]
[3]; ref Schadt 2015
  In vivo DILI: -VE
[4]; [5]
  Cellular toxicity (3T3 cells): +VE
  Combined Assay: -VE
  GSH adduct HML: -VE
  Hepatocyte cellular toxicity: -VE
  MitoTox 3T3: -VE
  TDI CYP3A4: -VE
  hBSEP inhibition: -VE
[2]; ref Chen 2016
  DILI +VE (5-8), DILI -VE (-4): +VE
  DILI severity category: vLess-DILI-Concern

## CN1c2c(oc(=O)n(-c3ccccn3)c2=O)-c2ccccc2S1(=O)=O [droxicam]
[3]; ref Schadt 2015
  In vivo DILI: +VE
[4]; [5]
  Cellular toxicity (3T3 cells): -VE
  Combined Assay: -VE
  GSH adduct HML: -VE
  Hepatocyte cellular toxicity: -VE
  MitoTox 3T3: -VE
  TDI CYP3A4: -VE
  hBSEP inhibition: -VE
[2]; ref Chen 2016
  DILI +VE (5-8), DILI -VE (-4): +VE
  DILI severity category: vMost-DILI-Concern

## C[C@]12CC[C@@H]3c4ccc(O)cc4CC[C@H]3[C@@H]1CC[C@@H]2O [estradiol]
[1]
  Partition Hybrid HRM Score: -VE
  Ro2 Hybrid HRM Score: -VE
[2]; in vivo
  DILI +VE (5-8), DILI -VE (-4): +VE
  DILI severity category: vLess-DILI-Concern

## C=C(CC)C(=O)c1ccc(OCC(=O)O)c(Cl)c1Cl [ethacrynic acid]
[1]; Partition hybrid, ref Aleo 2019
  Partition Hybrid HRM Score, In vitro Assay: +VE
[1]; Rule of Two hybrid, ref Aleo 2019
  Ro2 Hybrid HRM Score, In vitro Assay: +VE

## O=C(CCCN1CCC(O)(c2ccc(Cl)cc2)CC1)c1ccc(F)cc1 [haloperidol]
[1]; In vitro Assay, ref Aleo 2019
  Partition Hybrid HRM Score: -VE
  Ro2 Hybrid HRM Score: -VE

## CC(C)(C)NC(=O)[C@@H]1CN(Cc2cccnc2)CCN1C[C@@H](O)C[C@@H](Cc1ccccc1)C(=O)N[C@H]1c2ccccc2C[C@H]1O [indinavir]
[1]
  Partition Hybrid HRM Score: +VE
  Ro2 Hybrid HRM Score: +VE

## COC(=O)C1=C(C)NC(C)=C(C(=O)OC(C)C)C1c1cccc2nonc12 (centres unmarked) [isradipine]
[3]; ref Schadt 2015
  In vivo DILI: -VE
[4]; [5]
  Cellular toxicity (3T3 cells): +VE
  Combined Assay: -VE
  GSH adduct HML: +VE
  Hepatocyte cellular toxicity: +VE
  MitoTox 3T3: -VE
  TDI CYP3A4: -VE
  hBSEP inhibition: +VE
[2]; ref Chen 2016
  DILI +VE (5-8), DILI -VE (-4): +VE
  DILI severity category: vLess-DILI-Concern

## CCCNS(=O)(=O)Nc1ncnc(OCCOc2ncc(Br)cn2)c1-c1ccc(Br)cc1 [macitentan]
[3]; ref Aleo 2019
  In vivo DILI: +VE
[1]; In vitro Assay, ref Aleo 2019
  Partition Hybrid HRM Score: +VE
  Ro2 Hybrid HRM Score: +VE

## COCCc1ccc(OCC(O)CNC(C)C)cc1 (centres unmarked) [metoprolol]
[1]; In vitro Assay, ref Aleo 2019
  Partition Hybrid HRM Score: +VE
  Ro2 Hybrid HRM Score: -VE

## Cc1ncc2n1-c1ccc(Cl)cc1C(c1ccccc1F)=NC2 [midazolam]
[3]; ref Schadt 2015
  In vivo DILI: -VE
[4]
  Cellular toxicity (3T3 cells): -VE
  Combined Assay: +VE
  GSH adduct HML: +VE
  Hepatocyte cellular toxicity: +VE
  MitoTox 3T3: +VE
  TDI CYP3A4: -VE
  hBSEP inhibition: +VE
[2]; ref Chen 2016
  DILI +VE (5-8), DILI -VE (-4): -VE
  DILI severity category: vNo-DILI-Concern

## OC(CNCC(O)C1CCc2cc(F)ccc2O1)C1CCc2cc(F)ccc2O1 (centres unmarked) [nebivolol]
[3]; ref Schadt 2015
  In vivo DILI: -VE
[4]; [5]
  Cellular toxicity (3T3 cells): -VE
  Combined Assay: -VE
  GSH adduct HML: -VE
  Hepatocyte cellular toxicity: -VE
  MitoTox 3T3: -VE
  TDI CYP3A4: -VE
  hBSEP inhibition: -VE
[2]; ref Chen 2016
  DILI +VE (5-8), DILI -VE (-4): -VE
  DILI severity category: Ambiguous DILI-concern

## CCCc1nc(C(C)(C)O)c(C(=O)O)n1Cc1ccc(-c2ccccc2-c2nnn[nH]2)cc1 [olmesartan]
[3]; […]
  In vivo DILI: -VE
[3]; ref Schadt 2015
  In vivo DILI: -VE
[4]; [5]
  Cellular toxicity (3T3 cells): -VE
  Combined Assay: -VE
  GSH adduct HML: -VE
  Hepatocyte cellular toxicity: -VE
  MitoTox 3T3: -VE
  TDI CYP3A4: -VE
  hBSEP inhibition: -VE
[2]; ref Chen 2016
  DILI +VE (5-8), DILI -VE (-4): -VE
  DILI severity category: Ambiguous DILI-concern

## Cc1ccc(Nc2nccc(N(C)c3ccc4c(C)n(C)nc4c3)n2)cc1S(N)(=O)=O [pazopanib]
[1]; In vitro Assay, ref Aleo 2019
  Partition Hybrid HRM Score: +VE
  Ro2 Hybrid HRM Score: +VE

## COc1ccccc1OCC(O)CN1CCN(CC(=O)Nc2c(C)cccc2C)CC1 (centres unmarked) [ranolazine]
[3]; ref Schadt 2015
  In vivo DILI: -VE
[4]
  Cellular toxicity (3T3 cells): -VE
  Combined Assay: +VE
  GSH adduct HML: -VE
  Hepatocyte cellular toxicity: -VE
  MitoTox 3T3: +VE
  TDI CYP3A4: -VE
  hBSEP inhibition: -VE
[2]; ref Chen 2016
  DILI +VE (5-8), DILI -VE (-4): -VE
  DILI severity category: vNo-DILI-Concern

## O=C(O)COc1ccc(C(=O)c2cccs2)c(Cl)c1Cl [ticrynafen]
[3]; ref Aleo 2019
  In vivo DILI: +VE
[1]; In vitro Assay, ref Aleo 2019
  Partition Hybrid HRM Score: +VE
  Ro2 Hybrid HRM Score: +VE

## Cc1ccc(/C(=C\CN2CCCC2)c2ccccn2)cc1 [triprolidine]
[1]; In vitro Assay, ref Aleo 2019
  Partition Hybrid HRM Score: -VE
  Ro2 Hybrid HRM Score: -VE

## CCCCC(=O)N(Cc1ccc(-c2ccccc2-c2nnn[nH]2)cc1)[C@H](C(=O)O)C(C)C [valsartan]
[1]
  Ro2 Hybrid HRM Score: +VE
[2]; in vivo
  DILI +VE (5-8), DILI -VE (-4): +VE
  DILI severity category: vLess-DILI-Concern

## Cc1ccc(-c2nc3ccc(C)cn3c2CC(=O)N(C)C)cc1 [zolpidem]
[3]; […]
  In vivo DILI: -VE
[3]; ref Schadt 2015
  In vivo DILI: -VE
[4]
  Cellular toxicity (3T3 cells): -VE
  Combined Assay: -VE
  GSH adduct HML: -VE
  Hepatocyte cellular toxicity: -VE
  MitoTox 3T3: -VE
  TDI CYP3A4: -VE
  hBSEP inhibition: -VE
[2]; ref Chen 2016
  DILI +VE (5-8), DILI -VE (-4): -VE
  DILI severity category: Ambiguous DILI-concern
